Measured values published in ChEMBL document CHEMBL5537171, “Design, Synthesis, and Biological Evaluation of Potent and Selective PROTAC Degraders of Oncogenic KRASG12D” (J Med Chem, 2024).
One block for each compound: values may come before it. Activity calls are given as the source filed them. No cut-off for these calls is given here.

What was measured:
[1] = target: von Hippel-Lindau disease tumor suppressor/GTPase KRas (Homo sapiens, UniProt P01116+P40337, G12D); test: PROTAC activity at VHL/KRAS G12D mutant in human ASPC1 cells assessed as induction of protein degradation incubated for 24 hrs by Western blot analysis; assay type: cell-based
Chain of von Hippel-Lindau disease tumor suppressor/GTPase KRas (P01116 whole entry G12D, stated change not applied): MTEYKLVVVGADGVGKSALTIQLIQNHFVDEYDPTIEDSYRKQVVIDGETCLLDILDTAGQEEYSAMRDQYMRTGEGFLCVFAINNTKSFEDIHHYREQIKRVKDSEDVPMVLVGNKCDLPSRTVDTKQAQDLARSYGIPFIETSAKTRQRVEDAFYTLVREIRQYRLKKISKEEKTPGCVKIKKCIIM
Chain of von Hippel-Lindau disease tumor suppressor/GTPase KRas (P40337 whole entry, stated change not applied): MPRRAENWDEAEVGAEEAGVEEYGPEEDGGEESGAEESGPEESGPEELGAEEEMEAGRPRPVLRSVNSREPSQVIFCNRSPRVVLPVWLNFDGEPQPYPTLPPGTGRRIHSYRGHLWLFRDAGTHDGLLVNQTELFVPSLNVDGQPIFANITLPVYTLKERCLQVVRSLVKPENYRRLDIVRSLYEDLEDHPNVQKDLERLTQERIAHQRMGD

[2] = test system: von Hippel-Lindau disease tumor suppressor/GTPase KRas (Homo sapiens), P01116+P40337 [G12D]; test: PROTAC activity at VHL/KRAS G12D mutant in human ASPC1 cells assessed as induction of protein degradation incubated for 24 hrs by Western blot analysis relative to control; assay type: cell-based
Chain of von Hippel-Lindau disease tumor suppressor/GTPase KRas (Homo sapiens), P01116+P40337 [G12D] (P01116 whole entry G12D): as the sequence (P01116 whole entry G12D, stated change not applied) above
Chain of von Hippel-Lindau disease tumor suppressor/GTPase KRas (Homo sapiens), P01116+P40337 [G12D] (P40337 whole entry partner): as the sequence (P40337 whole entry, stated change not applied) above

[3] = Competitive binding affinity to His-tagged VHL/Elongin C/Elongin B (unknown origin) by FP assay; design: species or system Homo sapiens
[4] = Competitive binding affinity to His-tagged VHL/Elongin C/Elongin B/KRAS G12D mutant (unknown origin) by FP assay; design: species or system Homo sapiens
[5] = Cooperativity factor alpha, ratio of IC50 for His-tagged VHL/Elongin C/Elongin B (unknown origin) to IC50 for His-tagged VHL/Elongin C/Elongin B/KRAS (unknown origin)
[6] = Selectivity index, ratio of IC50 for human ASPC1 cells assessed as inhibition of cell viability incubated for 6 hrs followed by compound washout measured after 114 hrs by Cell Titer Glo assay to IC50 for human ASPC1 cells assessed as inhibition of cell viability incubated for 120 hrs of continuous treatment by Cell Titer Glo assay; assay type: functional
[7] = test system: von Hippel-Lindau disease tumor suppressor/GTPase KRas (Homo sapiens), P01116+P40337 [G12D]; test: PROTAC activity at VHL/KRAS G12D mutant in human ASPC1 cells assessed as decrease in pERK level at 1 uM incubated for 6 hrs followed by compound washout measured for <4 hrs by Western blot analysis; assay type: cell-based
ASPC1 [8] = test: Antiproliferative activity against human ASPC1 cells assessed as inhibition of cell viability incubated for 6 hrs followed by compound washout measured after 114 hrs by Cell Titer Glo assay; assay type: functional, cell-based
ASPC1 [9] = test: Antiproliferative activity against human ASPC1 cells assessed as inhibition of cell viability incubated for 120 hrs of continuous treatment by Cell Titer Glo assay; assay type: functional, cell-based; conditions: ASPC1, 120 h
ASPC1 [10] = test: Antiproliferative activity against human ASPC1 cells harboring KRAS G12D mutant assessed as inhibition of cell viability incubated for 5 days by Cell Titer Glo assay; assay type: functional, cell-based; conditions: ASPC1, 120 h
SNU1 = test: Antiproliferative activity against human SNU1 cells harboring KRAS G12D mutant assessed as inhibition of cell viability incubated for 5 days by Cell Titer Glo assay; assay type: functional, cell-based; conditions: SNU1, 120 h
HPAF-II = test: Antiproliferative activity against human HPAF-II cells harboring KRAS G12D mutant assessed as inhibition of cell viability incubated for 5 days by Cell Titer Glo assay; assay type: functional, cell-based; conditions: 120 h
AGS = test: Antiproliferative activity against human AGS cells harboring KRAS G12D mutant assessed as inhibition of cell viability incubated for 5 days by Cell Titer Glo assay; assay type: functional, cell-based; conditions: 120 h
Panc 04.03 = test: Antiproliferative activity against human Panc 04.03 cells harboring KRAS G12D mutant assessed as inhibition of cell viability incubated for 5 days by Cell Titer Glo assay; assay type: functional, cell-based; conditions: Panc 04.03, 120 h
NCI-H358 = test: Antiproliferative activity against human NCI-H358 cells harboring KRAS G12C mutant assessed as inhibition of cell viability incubated for 5 days by Cell Titer Glo assay; assay type: functional, cell-based; conditions: NCI-H358, 120 h
NCI-H1975 = test: Antiproliferative activity against human NCI-H1975 cells harboring wild-type KRAS assessed as inhibition of cell viability incubated for 5 days by Cell Titer Glo assay; assay type: functional, cell-based; conditions: NCI-H1975, 120 h
GTPase KRas = GTPase KRas (Homo sapiens, UniProt P01116, G12D); test: Inhibition of KRAS G12D mutant (unknown origin) preincubated for 15 mins followed by SOS1/EDA-GTP-DY-647P1 addition measured after 30 mins by HTRF assay
Chain of GTPase KRas (P01116 whole entry G12D): as the sequence (P01116 whole entry G12D, stated change not applied) above

[11] = Drug uptake in human ASPC1 cells at 10 uM incubated for 1 hr by MS analysis; assay type: ADME, cell-based; conditions: aspc1, 1 h
Homo sapiens = species on record: Homo sapiens; test: Binding affinity to His-tagged VHL/Elongin C/Elongin B/GST-tagged KRAS G12D mutant (unknown origin) incubated for 1 hr by HTRF assay
[12] = test system: von Hippel-Lindau disease tumor suppressor/GTPase KRas (Homo sapiens), P01116+P40337 [G12D]; test: PROTAC activity at VHL/KRAS G12D mutant in human ASPC1 cells assessed as induction of protein degradation at 1 to 10 uM incubated for 7 hrs by Western blot analysis; assay type: cell-based; conditions: dose 1-10 µM

SMILES: C#Cc1c(F)ccc2cc(O)cc(-c3ncc4c(N5C[C@H]6CC[C@@H](C5)N6)nc(OC[C@@H]5CCCN5CCCCOCC(=O)N[C@H](C(=O)N5C[C@H](O)C[C@H]5C(=O)N[C@@H](C)c5ccc(-c6scnc6C)cc5)C(C)(C)C)nc4c3F)c12
DC50 ([1]; read-out: DC50): 116 nM
Emax [2]: 99.5%

SMILES: CCc1cccc2cc(O)cc(-c3ncc4c(N5C[C@H]6CC[C@@H](C5)N6)nc(OC[C@@H]5CCCN5CCCCCCCCC(=O)N[C@H](C(=O)N5C[C@H](O)C[C@H]5C(=O)N[C@@H](C)c5ccc(-c6scnc6C)cc5)C(C)(C)C)nc4c3F)c12
DC50 ([1]; read-out: DC50): 165 nM
Emax [2]: 89.3%

SMILES: CCc1cccc2cc(O)cc(-c3ncc4c(N5C[C@H]6CC[C@@H](C5)N6)nc(OC[C@@H]5CCCN5CCCCOCCC(=O)N[C@H](C(=O)N5C[C@H](O)C[C@H]5C(=O)N[C@@H](C)c5ccc(-c6scnc6C)cc5)C(C)(C)C)nc4c3F)c12
DC50 ([1]; read-out: DC50): 1310 nM
Emax [2]: 90.2%

IC50 [3]: 343 nM
IC50 [4]: 380 nM
Ratio IC50 [5]: 0.9
SMILES: CC(=O)N[C@H](C(=O)N1C[C@H](O)C[C@H]1C(=O)N[C@@H](C)c1ccc(-c2scnc2C)cc1)C(C)(C)C

SMILES: CCc1cccc2cc(O)cc(-c3ncc4c(N5C[C@H]6CC[C@@H](C5)N6)nc(OC[C@@H]5CCCN5C5CC6(CCN(CC(=O)N[C@H](C(=O)N7C[C@H](O)C[C@H]7C(=O)N[C@@H](C)c7ccc(-c8scnc8C)cc7)C(C)(C)C)CC6)C5)nc4c3F)c12
DC50 ([1]; read-out: DC50): 134 nM
Emax [2]: 85.1%

SMILES: CCc1cccc2cc(O)cc(-c3ncc4c(N5C[C@H]6CC[C@@H](C5)N6)nc(OC[C@@H]5CCCN5CCCCCCC(=O)N[C@H](C(=O)N5C[C@H](O)C[C@H]5C(=O)N[C@@H](C)c5ccc(-c6scnc6C)cc5)C(C)(C)C)nc4c3F)c12
DC50 ([1]; read-out: DC50): 572 nM
Emax [2]: 98.9%

SMILES: CCc1cccc2cc(O)cc(-c3ncc4c(N5C[C@H]6CC[C@@H](C5)N6)nc(OC[C@@H]5CCCN5C[C@H]5CC[C@H](C(=O)N[C@H](C(=O)N6C[C@H](O)C[C@H]6C(=O)N[C@@H](C)c6ccc(-c7scnc7C)cc6)C(C)(C)C)CC5)nc4c3F)c12
DC50 [1]: Not Active
Emax [2]: inactive

SMILES: CCc1c(F)ccc2cc(O)cc(-c3ncc4c(N5C[C@H]6CC[C@@H](C5)N6)nc(OC[C@@H]5CCCN5C)nc4c3F)c12
Ratio IC50 [6]: 21.14
Activity [7]: Active
IC50 (ASPC1 [8]): 2940 nM
IC50 (ASPC1 [9]): 139 nM
IC50 (ASPC1 [10]): 154 nM
IC50 (SNU1): 29.8 nM
IC50 (HPAF-II): 165 nM
IC50 (AGS): 20.1 nM
IC50 (Panc 04.03): 112 nM
IC50 (NCI-H358): > 10000 nM
IC50 (NCI-H1975): > 10000 nM

IC50 (GTPase KRas): 5.8 nM
SMILES: CCc1cccc2cc(O)cc(-c3ncc4c(N5C[C@H]6CC[C@@H](C5)N6)nc(OC[C@@H]5CCCN5C)nc4c3F)c12

SMILES: CCc1cccc2cc(O)cc(-c3ncc4c(N5C[C@H]6CC[C@@H](C5)N6)nc(OC[C@@H]5CCCN5CCCCOCC(=O)N[C@H](C(=O)N5C[C@H](O)C[C@H]5C(=O)N[C@@H](C)c5ccc(-c6scnc6C)cc5)C(C)(C)C)nc4c3F)c12
DC50 ([1]; read-out: DC50): 164 nM
Emax [2]: 99.4%
IC50 [3]: 407 nM
IC50 [4]: 18.9 nM
Ratio IC50 [5]: 21.5
Drug uptake [11]: Active

SMILES: CCc1cccc2cc(O)cc(-c3ncc4c(N5C[C@H]6CC[C@@H](C5)N6)nc(OC[C@@H]5CCCN5CCCCCC(=O)N[C@H](C(=O)N5C[C@H](O)C[C@H]5C(=O)N[C@@H](C)c5ccc(-c6scnc6C)cc5)C(C)(C)C)nc4c3F)c12
DC50 ([1]; read-out: DC50): 1200 nM
Emax [2]: 89.7%

SMILES: CCc1cccc2cc(O)cc(-c3ncc4c(N5C[C@H]6CC[C@@H](C5)N6)nc(OC[C@@H]5CCCN5CCCOCCC(=O)N[C@H](C(=O)N5C[C@H](O)C[C@H]5C(=O)N[C@@H](C)c5ccc(-c6scnc6C)cc5)C(C)(C)C)nc4c3F)c12
DC50 ([1]; read-out: DC50): 132 nM
Emax [2]: 98.1%
IC50 [3]: 908 nM
IC50 [4]: 25.4 nM
Ratio IC50 [5]: 35.7

SMILES: CCc1cccc2cc(O)cc(-c3ncc4c(N5C[C@H]6CC[C@@H](C5)N6)nc(OC[C@@H]5CCCN5CCOCCC(=O)N[C@H](C(=O)N5C[C@H](O)C[C@H]5C(=O)N[C@@H](C)c5ccc(-c6scnc6C)cc5)C(C)(C)C)nc4c3F)c12
DC50 ([1]; read-out: DC50): 1820 nM
Emax [2]: 89.5%

SMILES: CCc1cccc2cc(O)cc(-c3ncc4c(N5C[C@H]6CC[C@@H](C5)N6)nc(OC[C@@H]5CCCN5CCCCC(=O)N[C@H](C(=O)N5C[C@H](O)C[C@H]5C(=O)N[C@@H](C)c5ccc(-c6scnc6C)cc5)C(C)(C)C)nc4c3F)c12
DC50 ([1]; read-out: DC50): 1010 nM
Emax [2]: 96.7%

SMILES: CCc1c(F)ccc2cc(O)cc(-c3ncc4c(N5C[C@H]6CC[C@@H](C5)N6)nc(OC[C@@H]5C[C@@H](F)CN5CCCCOCC(=O)N[C@H](C(=O)N5C[C@H](O)C[C@H]5C(=O)N[C@@H](C)c5ccc(-c6scnc6C)cc5)C(C)(C)C)nc4c3F)c12
DC50 ([1]; read-out: DC50): 87.2 nM
Emax [2]: 96.2%

SMILES: CCc1c(F)ccc2cc(O)cc(-c3ncc4c(N5C[C@H]6CC[C@@H](C5)N6)nc(OC[C@@H]5CCCN5CCCCOCC(=O)N[C@H](C(=O)N5C[C@@H](O)C[C@H]5C(=O)N[C@@H](C)c5ccc(-c6scnc6C)cc5)C(C)(C)C)nc4c3F)c12
Activity (Homo sapiens): inactive
Activity [12]: inactive
IC50 (ASPC1 [10]): > 2000 nM
IC50 (SNU1): 927 nM
IC50 (HPAF-II): > 4000 nM
IC50 (AGS): 955 nM
IC50 (Panc 04.03): 3360 nM
IC50 (NCI-H358): > 10000 nM
IC50 (NCI-H1975): > 10000 nM

SMILES: CCc1cccc2cc(O)cc(-c3ncc4c(N5C[C@H]6CC[C@@H](C5)N6)nc(OC[C@@H]5CCCN5CCC(=O)NCCC(=O)N[C@H](C(=O)N5C[C@H](O)C[C@H]5C(=O)N[C@@H](C)c5ccc(-c6scnc6C)cc5)C(C)(C)C)nc4c3F)c12
DC50 ([1]; read-out: DC50): 3810 nM
Emax [2]: 83.6%
IC50 [3]: 2270 nM
IC50 [4]: 29.8 nM
Ratio IC50 [5]: 76.2
Drug uptake [11]: Active

SMILES: CCc1cccc2cc(O)cc(-c3ncc4c(N5C[C@H]6CC[C@@H](C5)N6)nc(OC[C@@H]5CCCN5CCCCCCCC(=O)N[C@H](C(=O)N5C[C@H](O)C[C@H]5C(=O)N[C@@H](C)c5ccc(-c6scnc6C)cc5)C(C)(C)C)nc4c3F)c12
DC50 ([1]; read-out: DC50): 2260 nM
Emax [2]: 82.4%

SMILES: CCc1cccc2cc(O)cc(-c3ncc4c(N5C[C@H]6CC[C@@H](C5)N6)nc(OC[C@@H]5CCCN5C5CCC6(CC5)CCN(CC(=O)N[C@H](C(=O)N5C[C@H](O)C[C@H]5C(=O)N[C@@H](C)c5ccc(-c7scnc7C)cc5)C(C)(C)C)CC6)nc4c3F)c12
Emax [2]: 53.9%

SMILES: CCc1cccc2cc(O)cc(-c3ncc4c(N5C[C@H]6CC[C@@H](C5)N6)nc(OC[C@@H]5CCCN5CC5CCN(CCC(=O)N[C@H](C(=O)N6C[C@H](O)C[C@H]6C(=O)N[C@@H](C)c6ccc(-c7scnc7C)cc6)C(C)(C)C)CC5)nc4c3F)c12
Emax [2]: 29.8%
IC50 [3]: 2160 nM
IC50 [4]: 80.4 nM
Ratio IC50 [5]: 26.9
